In patent US20260115162A1, “COMPOSITION OR ASSOCIATION OF COMPOUNDS PREFERABLY FOR USE IN THE TREATMENT OF NERVOUS DISEASES IN PARTICULAR NEURODEGENERATIVE DISEASES, METHOD FOR THE PREPARATION OF SUCH COMPOSITION OR ASSOCIATION OF COMPOUNDS AND USES THEREOF” (PHARMACEUTICA SAN MARCO S.R.L., priority 2022, published 2026):

Assays:
[1] = tested on: intact mice; experiment: Behavioral tests on intact animals (open field, freezing); assay type: in vivo
Experimental: The trials were performed at the Department of Clinical and Experimental Medicine of the University of Foggia according to the following rationale. • 1. In the present mouse model of beta-amyloid toxicity, using validated tests in mice, we evaluated the behaviors: • a. antidepressant: Tail Suspension Test (TST); Forced Swimming Test (FST); Splash Test (ST) with latency time (sec) and self-care (sec) measurement. • b. antianxiety: Open Field Test with measurement of distance traveled (m), time spent in the wall (sec), time spent in the center (sec), center entries (n); Freezing Test (sec). • c. on memory, learning, coordination of motor skills, fear conditioning: Rotarod Test with measure of Latency to Fall, repeated after training to evaluate motor learning. • 2. We tested the protective effects with the following procedure: • a. individually: βCP, FE, βBA, DHA and HA4; • b. in association with pairs: βCP+HA4, FE+HA4, βBA+HA4, FE+βCP, βBA+FE, βBA+βCP. • c. in association, all four together: βCP+FE+βBA+HA4 • d. versus control (SHAM), • e. using the mouse model of an Aβ-induced depressive phenotype. • 3. These behavioral tests were integrated with serotonin, dopamine, noradrenaline and their metabolites prefrontal cortex and hippocampus measurement. • 4. Furthermore, we evaluated the cortical and hippocampal glutamate (GLU) levels in mice treated with AP and subsequently we tested the ability of βCP, FE, βBA and HA4, to modulate this neurochemical parameter.
βCP, FE e βBA (Merck, Cayman Chemical Company) was dissolved in sunflower oil, this vehicle was chosen in order to maintain a better tasting and higher density of the final solution thus reducing reflux through the digestive tract.
Ten μl of the solution (or vehicle alone) were administered sublingually to mice. Brain βCP, FE e βBA were quantified in a separate subset of mice at 5, 15 and 30 min after their administration.
Open Field Test. Mice were placed in an open field arena and allowed to explore for 30 min [Lama A et al. 2021]. After each trial, the arena floor was cleaned with 70% ethanol to avoid inter-assay bias. The movements of mice were video recorded and analyzed by ANY-maze tracking software (Ugo Basile-Varese, Gemonio, Italy). Locomotion was evaluated through total crossing measurements.

[2] = tested on: serotonin (5-HT); experiment: Serotonin (5-HT) levels in mice treated with Aβ icv (FIG. 5a); assay type: in vivo
Experimental: The Aβ1-42, obtained from Tocris (Bristol, UK), was dissolved in sterile double-distilled pyrogenic-free water, as vehicle, to obtain a final concentration 4 μM [Colaianna M et al. 2010]. Mice were anesthetized with a solution (0.85 in ml/kg, i.p.), containing ketamine (Sigma Aldrich, Milan, Italy, 100 mg/10 ml), xylazine (Sigma Aldrich, Milan, Italy, 100 mg/10 ml) and acepromazine (prequillant, ATI Azienda Terapeutica Veterinaria Srl, 10 mg/10 ml) dissolved in saline solution. […] At the time of dissection, the correct needle track was assessed. […]
All behavioral experiments were conducted at 5 or 30 min after sublingual administrations of βBA or vehicle in mice treated with SHAM or AP. Based on the observed behavioral results, neurochemical and biochemical quantifications were performed 30 min after administration of βCP, FE, and βBA or vehicle in SHAM- or Aβ-treated mice. […]
5-HT, noradrenaline (NA), and KYN levels were measured in the PFC and HIPP of mice by HPLC coupled with an electrochemical detector (Ultimate ECD, Thermo Scientific Dionex, Milan, Italy) as already reported [Francavilla M et al. 2012, Morgese M G et al. 2016]. […] GLU concentrations were determined by HPLC coupled with fluorescence detection (emission length 460 nm; excitation length 340 nm), as previously published [Francavilla M et al. 2012]. […]

[3] = mice, via os, cited from earlier work

## C[C@H]1[C@H](C)CC[C@]2(C)CC[C@]3(C)C(=CC[C@@H]4[C@@]5(C)CC[C@@H](O)[C@](C)(C(=O)O)[C@@H]5CC[C@]43C)[C@H]12 [βBA, β-boswellic acid]
[1]; intact mice, preliminary experiments (unpublished observations)
  lowest dose showing antidepressant effects: 5 mg/kg
[1]; mouse, in vivo
  effect in behavioral tests, individually: antidepressant and anxiolytic effect
[2]
  Serotonin (5-HT) levels: progressively greater serotonergic activity
[3]; intestinal mucosa to blood
  reduction of blood concentration compared to the dose introduced orally: up to 40 times
[3]
  concentration in the brain: 1,066 ng/g o ng/ml
  concentration in the plasma: 725 ng/g o ng/ml
